Measured values from paper PMC4595804, “A strategy to discover decoy chemokine ligands with an anti-inflammatory activity” (Scientific Reports, 2015).
Read-outs that look alike come from different tables or passages of the source.

What was measured:
CCL17 = molecular target: T1, CCL17 (Homo sapiens, UniProt Q92583); assay: TRIC-r calcium assay, neutraligand protocol: compound preincubated with CCL17, EGFP-CCR4+Gqi5+ HEK cells; assay type: cell-based
T1 construct: codes for the mature CCL17 or CCL22 with an N-terminal thioredoxin-hexahistidin (TRX- (His)6) tag; thioredoxin (TRX) (N, cleaved yes); (His)6 (N, cleaved yes); made in house; host or cells: E. coli BL21 (DE3)
T1 sequence (Q92583 24-94): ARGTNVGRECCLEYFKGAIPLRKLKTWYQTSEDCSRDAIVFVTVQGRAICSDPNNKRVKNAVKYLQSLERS
Protocol: (§1) EGFP-CCR4^+Gqi5^+HEKcells were loaded with fluorescent Ca^2+-indicator Indo-1 AM (5μM, Interchim) for 45 min at 37 °C. […] Cells (100,000 cells/well, 100μl) were seeded in black clear bottom 96-well plates (Greiner), and centrifuged at 250 × g for 5 min.
(§2) Two plates (96-well plates, Greiner) were prepared for the screen: one containing test compounds alone in order to determine their direct agonistic activity, and another one containing test compounds mixed with CCL17 or CCL22 at room temperature for 1 h (neutraligand protocol). The chemokines and test compounds were prepared at a 3× concentration, while digitonin was prepared at a 4× concentration. The CCR4 antagonist, C-021 served as control in the experiment. In the antagonist protocol, compounds were added to the cell plate (one compound per well) and incubated with cells for 30 min at room temperature, while the agonist (CCL17 or CCL22) was added to the ligand plate only.
(§3) Dye loaded cells were placed in the FlexStation 3 (Molecular Devices). […] For the primary screening, the ligands (50μl of chemokine mixed with DMSO or test compounds) were added to the cells at 40 s, followed by digitonin addition (50μl) at 100 s to the cells. Molecules were screened at a final concentration of 2μg/ml with 5 nM CCL17 or CCL22. […] The calcium response values (height of peak response over baseline) were determined. Hits were selected by comparing the response amplitude at the time of the chemokine addition ± test compound. The Z’ factor[29] was calculated according to the following equation: Z’ = 1-(3SD+ + 3SD−)/|Ave+ − Ave−|, where SD+ and Ave+ are respectively the standard deviation and the mean value of the positive controls (chemokine + DMSO), while SD− and Ave− are respectively the standard deviation and the mean value of the negative controls (HEPES-BSA (0.1%) mixed with DMSO, or cells mixed with C-021). Hit molecules were confirmed by performing concentration-response curves and their half maximal inhibitory concentration (IC50) values were calculated using the Kaleidagraph software.

CCL22 = molecular target: T2, CCL22 (Homo sapiens, UniProt O00626); assay: TRIC-r calcium assay, neutraligand protocol: compound preincubated with CCL22, EGFP-CCR4+Gqi5+ HEK cells; assay type: cell-based; details: for inhibition at 5 µM: compound 5 µM, read-out: Inhibition of CCL22 calcium responses (%)
T2 construct: codes for the mature CCL17 or CCL22 with an N-terminal thioredoxin-hexahistidin (TRX- (His)6) tag; thioredoxin (TRX) (N, cleaved yes); (His)6 (N, cleaved yes); made in house; host or cells: E. coli BL21 (DE3)
T2 sequence (O00626 25-93): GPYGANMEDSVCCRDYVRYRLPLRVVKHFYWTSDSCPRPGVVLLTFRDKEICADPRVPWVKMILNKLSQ
Protocol: as §1, §2, §3

HUT78 T cells = assay: WST-1 metabolic activity assay; assay type: cell-based, human; details: 30 μM (highest concentration), 72 h
Excerpt: WST-1 metabolic activity assay
The colorimetric WST-1 cell metabolic assay (Ozyme) was used to assess the cytotoxic effect of chemokine neutraligands. This is a cell viability test based on the enzymatic cleavage by the mitochondrial succinate-tetrazolium reductase of a tetrazolium salt, WST-1 (4-[3-(4-Iodophenyl)-2-(4-nitrophenyl)-2H-5-tetrazolio]-1,3 benzene disulfonate), into a water- […]
soluble formazan dye which can be detected by absorbance at 420-480nm. HUT78 T cells (or HaCat cells) were seeded on 24-well plates (200,000 cells per well) and were incubated […]
concentration ≤1% on cells). The background control was reserved as one well containing the culture medium only. The plates were incubated for 72h at 37°C. Three days later, the medium containing the neutraligands was removed, and WST-1 reagent (1:10 final dilution) (Ozyme) was added to each well for a 2h incubation at 37°C as the manufacturer’s recommendation. The plates were shaken and absorbance was measured at 450nm (reference wavelength 690nm) against the background control, using a multiwell plate reader (EnVision, Perkin Elmer). Assays were performed as three independent replicates. […]
(Heidelberg, Germany) and was cultured in Dulbecco’s Modified Eagle Medium (DMEM) (Invitrogen) supplemented with 10% fetal bovine serum (FBS) (Gibco-BRL), 100U/ml penicillin (Invitrogen), 100µg/ml streptomycin (Invitrogen) and 2mM L-glutamine (Invitrogen) at 37°C and 5% CO 2. The cells received fresh medium every other day and were subcultured every 10 days. HaCat cells were seeded in a 24-well plate (ESSEN Bioscience) at a density of 200,000 cells per well, and were allowed to grow until confluence. A scratch wound along the cell monolayer was created using the Essen woundmakerTM. Cells were washed twice with PBS to remove detached cells, and were treated with serum-free culture medium in the absence or presence of 100ng/ml chemokine (CCL22 or CCL17) preincubated with DMSO or […]
The molecules were also tested alone […]
without the chemokine. […] One […]
µg/ml of mitomycin C (Sigma-Aldrich) was added throughout the experiment in order to block cell proliferation. Once treated, the cells were immediately placed into the IncuCyteTM live-cell imaging, and the cell migration onto the wounded area was examined for 72h. Phase-contrast images acquired for each sample were captured every 2h (objective lens x10), and […]

[1] = Solubility measurements (RP-HPLC); assay type: physicochemical; details: kinetic from dmso stock, dissolved at 10 µM, room temperature
Protocol: Standard stock solutions of compounds (10mM) were prepared in DMSO, and the molecules were dissolved at a concentration of 10µM in each of the three buffers. The samples were shaken for 1h at room temperature, and centrifuged at 15,000×g . The compounds concentration in the supernatant solutions was determined using RP-HPLC (Gilson) technique. The measurements were done with a UV detector set at 230nm. The measurements were carried out at room temperature using a C18 column ([…], 50×4.6mm, Phenomenex). The aqueous mobile phase contained 0.05% trifluoroacetic acid (solvent A, Sigma-Aldrich). The organic phase was HPLC grade acetonitrile (Sigma-Aldrich CHROMASOLV) (solvent B). The mobile phase flow rate was 2ml/min, and the following program was applied for the elution: 0–0.1min, 5% B; 0.1–2.6min, 5–95% B; 2.6–3.1min, 95% B; 3.1–3.3min, 95–5% B; and 3.3–6min, 5% B. To establish external calibration curves, increasing concentrations of each compound were prepared from standard stock solutions.
The chromatograms were recorded by injecting 20µl of each standard solution, and the calibration curves were plotted using peak areas. […]

[2] = 10 μM compound, 5 nM chemokine, remaining response
[3] = HEPES buffer, aqueous buffer, read-out: solubility in HEPES buffer
[4] = complete cell culture medium, plasma or biological fluid, read-out: solubility in the cell culture medium

Row | Compound | calcium response induced by WT CCL17 preincubated with compound (CCL17; [2]) | inhibition at 5 µM (CCL17; HEK293, read-out: Inhibition of CCL17 calcium responses (%)) | inhibition at 10 µM (CCL17; HEK293, read-out: inhibition of CCL17-evoked calcium responses (selectivity)) | inhibition at 2 µg/mL (CCL17; HEK293, read-out: inhibition of CCL17-induced calcium responses (primary screen)) | calcium response induced by WT CCL22 preincubated with compound (CCL22; [2]) | inhibition at 5 µM (CCL22; HEK293) | cytotoxic activity on HUT78 T cells (metabolic activity vs control non-treated cells) (HUT78 T cells) | solubility at 1 h [1, 3] | solubility at 1 h [1, 4] | inhibition of CCL17-evoked calcium responses (selectivity) (CCL17; 10 μM compound, 5 nM CCL17, EGFP-CCR4+ HEK cells) | inhibition at 5 µM (CCL17; HEK293, compound 5 µM, read-out: Inhibition of CCL17 calcium responses (%)) | IC50 (CCL22; 5 nM CCL22 preincubated 1 h with compound, 21 °C, read-out: IC50 for CCL22 neutralization (calcium assay)) | inhibition at 2 µg/mL (CCL22; HEK293, 2 μg/ml compound preincubated 1 h with 5 nM CCL22, read-out: inhibition of CCL22-induced calcium responses (primary screen))
1 | CC(C)=CCn1cnc2c1c(=O)n(C)c(=O)n2C [GPN279, 1,3-dimethyl-7-(3-methylbut-2-enyl)-1H-purine-2,6(3H, 7H)-dione] | 56.0 ± 5.0% | 42 ± 4% | 40% | 42% | neither inhibited WT nor CCL22 mutants | 0% | no cytotoxic activity | > 10 µM | > 10 µM |  |  |  | 
2 | O=C(OCC(O)CO)c1ccccc1O (centres unmarked) [GPN136, 2,3-dihydroxypropyl 2-hydroxybenzoate] |  |  |  |  |  | 35 ± 8% | no cytotoxic activity | > 10 µM | > 10 µM | no effect | 0% | 11.6 ± 2.5 µM | 46%
